The target in experiment [1] is T1, Sodium-dependent serotonin transporter (Homo sapiens, UniProt P31645). The experiment can be described thus: Compound was evaluated for binding affinity using [125I]RTI-55 as a radioligand in HEK-hSERT cells expressing human serotonin transporter. The experiment is classed as cell-based.
Experiment [2] addresses Sodium-dependent dopamine transporter (Rattus norvegicus, UniProt P23977). Put plainly: Inhibition of reuptake of [3H]DA at Dopamine transporter (DAT).
Experiment [3] deals with Norepinephrine transporter (Rattus norvegicus, UniProt Q9WTR4). Put plainly: Inhibition of reuptake of [3H]-NE at Norepinephrine transporter.
Chain of Norepinephrine transporter (Q9WTR4 whole entry): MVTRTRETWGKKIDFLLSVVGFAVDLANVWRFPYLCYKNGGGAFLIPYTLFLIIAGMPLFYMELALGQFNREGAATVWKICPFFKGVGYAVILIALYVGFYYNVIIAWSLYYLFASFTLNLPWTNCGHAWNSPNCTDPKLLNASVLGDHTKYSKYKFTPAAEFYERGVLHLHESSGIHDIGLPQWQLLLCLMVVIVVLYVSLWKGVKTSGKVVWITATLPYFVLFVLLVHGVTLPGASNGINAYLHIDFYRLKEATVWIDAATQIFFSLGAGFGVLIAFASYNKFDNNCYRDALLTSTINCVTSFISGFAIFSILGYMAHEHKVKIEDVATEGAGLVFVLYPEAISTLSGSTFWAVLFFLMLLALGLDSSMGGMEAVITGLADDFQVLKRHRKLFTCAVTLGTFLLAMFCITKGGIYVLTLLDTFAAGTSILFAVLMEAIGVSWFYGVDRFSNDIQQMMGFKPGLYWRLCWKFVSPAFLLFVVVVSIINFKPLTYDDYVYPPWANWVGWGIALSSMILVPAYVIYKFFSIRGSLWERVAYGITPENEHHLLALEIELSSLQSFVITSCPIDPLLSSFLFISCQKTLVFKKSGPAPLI
Experiment [4] deals with Sodium-dependent serotonin transporter (Rattus norvegicus, UniProt P31652). Put plainly: Inhibition of reuptake of [3H]5-HT at serotonin transporter.
Chain of Sodium-dependent serotonin transporter (Rattus norvegicus, UniProt P31652) (P31652 whole entry): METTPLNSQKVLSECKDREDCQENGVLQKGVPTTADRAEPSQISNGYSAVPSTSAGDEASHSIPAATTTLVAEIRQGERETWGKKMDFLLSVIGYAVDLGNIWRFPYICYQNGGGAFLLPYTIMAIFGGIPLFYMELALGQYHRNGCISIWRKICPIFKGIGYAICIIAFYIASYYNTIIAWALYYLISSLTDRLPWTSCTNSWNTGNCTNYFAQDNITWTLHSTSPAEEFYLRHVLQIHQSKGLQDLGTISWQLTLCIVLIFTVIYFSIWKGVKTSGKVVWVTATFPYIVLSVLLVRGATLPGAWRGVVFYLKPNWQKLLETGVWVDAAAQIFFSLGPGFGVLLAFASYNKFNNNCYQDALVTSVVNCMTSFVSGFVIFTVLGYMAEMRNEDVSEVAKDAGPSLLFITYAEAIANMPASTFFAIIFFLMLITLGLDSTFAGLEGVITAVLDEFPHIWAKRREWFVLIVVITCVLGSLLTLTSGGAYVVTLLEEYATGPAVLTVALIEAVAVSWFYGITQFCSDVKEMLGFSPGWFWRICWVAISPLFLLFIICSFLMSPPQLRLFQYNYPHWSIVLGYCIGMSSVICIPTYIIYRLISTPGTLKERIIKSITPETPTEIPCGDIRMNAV
In experiment [5] the target is T2, Sodium-dependent noradrenaline transporter (Homo sapiens, UniProt P23975). The experiment can be described thus: Compound was evaluated for binding affinity using [125I]RTI-55 as a radioligand in HEK-hNET cells expressing human norepinephrine transporter. Type of experiment: cell-based.
T2 sequence (P23975 whole entry): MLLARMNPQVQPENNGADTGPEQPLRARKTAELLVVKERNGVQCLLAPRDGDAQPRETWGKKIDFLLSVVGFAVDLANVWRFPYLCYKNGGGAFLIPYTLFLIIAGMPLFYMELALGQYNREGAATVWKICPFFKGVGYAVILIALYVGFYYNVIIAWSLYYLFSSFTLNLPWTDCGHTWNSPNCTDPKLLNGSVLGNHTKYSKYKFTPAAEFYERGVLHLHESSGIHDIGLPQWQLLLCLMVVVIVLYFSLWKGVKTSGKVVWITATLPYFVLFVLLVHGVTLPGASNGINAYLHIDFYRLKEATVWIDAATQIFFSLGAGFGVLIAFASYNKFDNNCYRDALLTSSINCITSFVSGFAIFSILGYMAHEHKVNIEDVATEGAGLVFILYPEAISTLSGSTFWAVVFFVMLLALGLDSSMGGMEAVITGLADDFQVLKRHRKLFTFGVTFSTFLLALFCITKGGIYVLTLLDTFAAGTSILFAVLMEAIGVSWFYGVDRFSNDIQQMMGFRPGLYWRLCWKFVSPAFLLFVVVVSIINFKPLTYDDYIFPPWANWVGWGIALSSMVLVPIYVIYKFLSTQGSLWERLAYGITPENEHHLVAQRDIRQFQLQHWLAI
Experiment [6] concerns the target T2, Sodium-dependent noradrenaline transporter. The experiment can be described thus: Compound was evaluated for inhibition of [3H]NE uptake in HEK-hNET cells expressing Human norepinephrine transporter. The experiment is classed as cell-based.
The target in experiment [7] is T1, Sodium-dependent serotonin transporter. The experiment can be described thus: Compound was evaluated for inhibition of [3H]5-HT uptake in HEK-hSERT cells expressing Human serotonin transporter. The experiment is classed as cell-based.
Experiment [8] has as its target T3, Sodium-dependent dopamine transporter (Homo sapiens, UniProt Q01959). Put plainly: Compound was evaluated for inhibition of [3H]DA uptake in HEK-hDAT cells expressing Human dopamine Transporter. Type of experiment: cell-based.
For experiment [9], the target named is T3, Sodium-dependent dopamine transporter. Put plainly: Compound was evaluated for binding affinity to dopamine transporter using [125I]RTI-55 as a radioligand in HEK cells expressing human transporters. The experiment is classed as cell-based, HEK293.

Where only a bound is given, the exact number is not on record here.

Chain of Sodium-dependent dopamine transporter (Rattus norvegicus, UniProt P23977) (P23977 whole entry): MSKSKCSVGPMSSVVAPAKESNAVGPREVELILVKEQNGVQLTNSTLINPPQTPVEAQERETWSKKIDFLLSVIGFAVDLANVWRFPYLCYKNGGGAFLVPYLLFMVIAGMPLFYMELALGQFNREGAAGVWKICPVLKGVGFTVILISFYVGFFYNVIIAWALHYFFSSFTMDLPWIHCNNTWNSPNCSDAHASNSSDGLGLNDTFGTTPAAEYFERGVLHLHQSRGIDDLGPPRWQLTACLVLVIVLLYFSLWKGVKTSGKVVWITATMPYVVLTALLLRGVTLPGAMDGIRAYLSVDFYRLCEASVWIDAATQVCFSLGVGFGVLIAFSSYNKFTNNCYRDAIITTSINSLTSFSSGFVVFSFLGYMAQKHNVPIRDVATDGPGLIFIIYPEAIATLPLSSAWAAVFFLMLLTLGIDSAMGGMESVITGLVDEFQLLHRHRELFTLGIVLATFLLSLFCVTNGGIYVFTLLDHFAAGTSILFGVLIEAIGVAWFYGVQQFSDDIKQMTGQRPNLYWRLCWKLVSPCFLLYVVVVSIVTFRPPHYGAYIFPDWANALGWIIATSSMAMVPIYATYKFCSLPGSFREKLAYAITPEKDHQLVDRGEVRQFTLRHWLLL
T3 sequence (Q01959 whole entry): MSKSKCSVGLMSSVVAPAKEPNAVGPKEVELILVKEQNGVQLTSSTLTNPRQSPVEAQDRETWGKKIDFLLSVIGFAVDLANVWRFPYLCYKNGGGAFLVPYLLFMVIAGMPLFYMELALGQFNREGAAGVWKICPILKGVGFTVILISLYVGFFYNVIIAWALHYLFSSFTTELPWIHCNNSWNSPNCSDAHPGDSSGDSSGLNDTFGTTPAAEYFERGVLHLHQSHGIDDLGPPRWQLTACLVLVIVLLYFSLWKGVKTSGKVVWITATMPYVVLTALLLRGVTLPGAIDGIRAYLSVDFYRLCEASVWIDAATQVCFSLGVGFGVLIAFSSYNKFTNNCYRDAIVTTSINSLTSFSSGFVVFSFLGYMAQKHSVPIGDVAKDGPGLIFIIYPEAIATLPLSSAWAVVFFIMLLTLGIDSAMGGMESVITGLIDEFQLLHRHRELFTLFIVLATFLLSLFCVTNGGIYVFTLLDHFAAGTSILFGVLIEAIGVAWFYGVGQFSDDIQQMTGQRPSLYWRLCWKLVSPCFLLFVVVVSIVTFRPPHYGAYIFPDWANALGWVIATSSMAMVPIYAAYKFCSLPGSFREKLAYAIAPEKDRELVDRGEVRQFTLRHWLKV
T1 sequence (P31645 whole entry): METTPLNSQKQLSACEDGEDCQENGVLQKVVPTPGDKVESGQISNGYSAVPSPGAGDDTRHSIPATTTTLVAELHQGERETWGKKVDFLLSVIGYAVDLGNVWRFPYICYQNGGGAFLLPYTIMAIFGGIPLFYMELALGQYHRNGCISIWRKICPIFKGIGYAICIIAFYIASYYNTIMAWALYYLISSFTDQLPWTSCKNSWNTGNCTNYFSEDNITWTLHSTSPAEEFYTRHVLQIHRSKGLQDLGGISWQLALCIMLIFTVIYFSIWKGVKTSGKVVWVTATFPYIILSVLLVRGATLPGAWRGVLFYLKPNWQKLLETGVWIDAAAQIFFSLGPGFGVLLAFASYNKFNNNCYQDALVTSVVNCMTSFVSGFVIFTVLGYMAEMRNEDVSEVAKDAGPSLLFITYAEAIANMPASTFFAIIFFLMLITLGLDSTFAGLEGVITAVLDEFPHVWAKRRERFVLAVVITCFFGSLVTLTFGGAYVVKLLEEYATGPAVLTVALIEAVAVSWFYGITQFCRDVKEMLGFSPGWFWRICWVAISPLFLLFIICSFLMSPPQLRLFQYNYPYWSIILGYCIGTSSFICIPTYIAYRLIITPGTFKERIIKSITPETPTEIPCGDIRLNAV

With `COC(=O)[C@H]1C2CC[C@@H]3C[C@@H]1/C(=C/c1ccccc1)CN23`, the Ki in [1] was determined as 2330 nM; in experiment [2], 481 nM; in experiment [3], 53 nM; in [4] it was 1140 nM; in [5], 1040 nM; in experiment [6], 68 nM. Also, the Ki in [7] was found to be 2400 nM; in experiment [8], 910 nM; in [9], 1570 nM.

`COC(=O)[C@H]1C2CC[C@@H]3C[C@@H]1/C(=C/c1ccc(F)cc1)CN23`: the Ki is 6620 nM in experiment [2], 584 nM in experiment [3] and 335 nM in experiment [4].

Turning to `CC(=O)OC[C@H]1C2CC[C@@H]3C[C@@H]1/C(=C/c1ccccc1)CN23`, the Ki in experiment [2] turned out to be 1030 nM; in [3], 450 nM; in experiment [4] it was 1050 nM.

For the compound `OC[C@H]1C2CC[C@@H]3C[C@@H]1/C(=C/c1ccccc1)CN23`, the Ki in [2] came out at 9690 nM; in [3], 2830 nM; in experiment [4] it was 5300 nM.

As for `COC(=O)[C@H]1C2CC[C@@H]3C[C@@H]1/C(=C/c1ccoc1)CN23`, the Ki is 1880 nM in experiment [2], 164 nM in experiment [3] and 498 nM in [4].

Turning to `COC(=O)[C@H]1C2CC[C@@H]3C[C@@H]1/C(=C/c1ccc(-c4ccccc4)cc1)CN23`, the inhibitory constant (Ki) in experiment [2] was 477 nM; in [3], 12 nM; in [4] it was 614 nM.

Consider `COC(=O)[C@H]1C2CC[C@@H]3C[C@@H]1/C(=C/c1cccs1)CN23`, for which the Ki in experiment [2] was 268 nM; in experiment [3] it was 26 nM; in experiment [4] it was 2050 nM.

For `COC(=O)[C@H]1C2CC[C@@H]3C[C@@H]1/C(=C/c1ccc(OC)cc1)CN23`, the Ki is 42 nM in experiment [1]; 3130 nM in experiment [2]; 187 nM in [3]; 56 nM in experiment [4]; 5440 nM in experiment [5]; 208 nM in [6]. The results for the Ki in experiment [7], in [8] and in experiment [9] were 53 nM, 3700 nM and 3600 nM, respectively.

As to `COC(=O)[C@H]1C2CC[C@@H]3C[C@@H]1/C(=C\c1ccccc1)CN23`, the Ki turned out to be 5070 nM in experiment [2], 1530 nM in experiment [3] and 7480 nM in [4].

In the case of `COC(=O)[C@H]1C2CC[C@@H]3C[C@@H]1/C(=C/c1ccco1)CN23`, the Ki in experiment [2] amounted to 2020 nM; in experiment [3], 111 nM; in experiment [4], 3680 nM.

In the case of `OC[C@H]1C2CC[C@@H]3C[C@@H]1/C(=C/c1ccc(Cl)c(Cl)c1)CN23`, the Ki in experiment [2] came out at 21300 nM; in [3] it was 10500 nM; in [4], 96 nM.

For `COC(=O)[C@H]1C2CC[C@@H]3C[C@@H]1/C(=C/c1cccc4ccccc14)CN23`, the values for the Ki in experiment [2], in experiment [3] and in experiment [4] were 9720 nM, 5370 nM and 121 nM, respectively.

As to `COC(=O)[C@H]1C2CC[C@@H]3C[C@@H]1/C(=C/c1ccc(Cl)c(Cl)c1)CN23` (stereo in doubt; 5b), the Ki in experiment [1] turned out to be 0.56 nM; in experiment [2] it was 1920 nM; in [3], 1000 nM; in experiment [4] it was 20 nM; in experiment [5], 3770 nM; in [6] it was 640 nM. The Ki in experiment [7] was 30 nM; in [8], > 10000 nM; in experiment [9], 3320 nM.

Values taken from ChEMBL document CHEMBL1133189, “Novel conformationally constrained tropane analogues by 6-endo-trig radical cyclization and stille coupling - switch of activity toward the serotonin and/or norepinephrine transporter” (J Med Chem, 2000).
